# Experiments:
# [1] = test system: cord-blood-derived, bone marrow-derived, and peripheral blood derived hematopoietic cells; details: grown without a feeder layer; cited from earlier work
# [2] = test system: hematopoietic stem/progenitor cells (CD34+ or CD133+); experiment: Ex vivo expansion of hematopoietic cells; assay type: cell-based, human; details: cultured with cytokines plus inhibitor, compared to cells cultured with cytokines alone
# Procedure: Cell cultures of human hematopoietic cells: Human umbilical cord blood cells were obtained from umbilical cord blood after normal full-term delivery (informed consent was given). MPB, or BM were obtained from donations (informed consent was given). Samples were either used fresh or collected and frozen according to well known cord blood cryopreservation protocol (Rubinstein et al. 1995) within 24 hours postpartum for UCB or according to common practice regarding MPB and BM. Prior to cryopreservation, blood was sedimented for 30 minutes on […] Starch (hydroxyethyl starch) to remove most RBC. Prior to their use, the cells were thawed in Dextran buffer (Sigma, St. Louis, Mo., USA) containing 2.5% human serum albumin (HSA)(Bayer Corp. Elkhart, Ind., USA) and processed as described herein below. Following thawing, where indicated, the leukocyte-rich fraction was harvested and layered on Ficoll-Hypaque gradient (1.077 g/mL; Sigma Inc, St Louis Mo., USA), and centrifuged at 400×g for 30 minutes. The mononuclear cell fraction in the interface layer was then collected, washed three times, and re-suspended in phosphate-buffered saline (PBS) (Biological Industries, Bet HaEmek, Israel) containing 0.5% human serum albumin (HSA) (Bayer Corp. Elkhart, Ind., USA). […] The purity of the CD133^+ populations thus obtained was 80-95%, as evaluated by flow cytometry. […]
SMILES,fraction of CD34+ cells and long-term clonability [1],enrichment of stem/early progenitor cell subsets (CD34+CD38− and CD34+Lin−) in cultured population [2]
"NCCNCCNCCNCCN [TEPA, tetraethylpentamine]",greatly enhanced the fraction of CD34^+ cell and their long-term clonability,
NC(=O)c1cccnc1 [nicotinamide],,enriched with subsets of stem/early progenitor cells

# — patent US20080199441A1, “Use of ex-vivo cultured hematopoietic cells for treatment of peripheral vascular diseases” (priority 2006, published 2008)
